Measurements as given in patent US20080207864A1, “Organosilanes, Process For Production of the Same, and Use Thereof” (priority 2004, published 2008).

Experiment: Solubility in an organic solvent
Type: physicochemical
Details: 1 μml of compound added to 1 ml solvent, mixed 15 minutes; chloroform for Examples 7 to 8, toluene for Examples 9 to 10 and Comparative Example 1
Experimental: Solubility of organic silane compounds synthesized in Examples 7 to 10, and 6,8,11,13-tetra(N,N-diphenylamino)pentacene of Comparative Example 1 in an organic solvent was assessed. More particularly, 1 μml of each compound was added to 1 ml of the following organic solvent, and this was mixed for 15 minutes.
Examples 9 to 10 and Comparative Example 1
Each of organic silane compounds of Examples 7 to 10 was dissolved in an organic solvent to obtain a transparent solution.

With `c1ccc(N(c2ccccc2)c2ccc(N(c3ccccc3)c3ccccc3)c3cc4c(N(c5ccccc5)c5ccccc5)c5cc6ccccc6cc5c(N(c5ccccc5)c5ccccc5)c4cc23)cc1` [Comparative Example 1, 6,8,11,13-tetra(N,N-diphenylamino)pentacene] the “Solubility in an organic solvent” value was “only dispersed and not dissolved in an organic solvent”.
